One may read the IC50 as the midpoint of a concentration-inhibition curve.

Experiment [1] relates to P388 murine leukemia. Kind of experiment: P388 in vitro anti-tumor testing (MTT). Format: cell-based. The settings on record: Mus musculus, 48-hr exposure. As to the method:
(§1) P388 cells can be obtained from the National Cancer Institute, Bethesda, Md., and A549 cells can be obtained from American Type Culture Collection, Rockville, Md. All cell lines are maintained in Roswell Park Memorial Institute (RPMI) medium 1640 supplemented with 10% bovine calf serum. All cell lines are cultured in plastic tissue culture flasks and kept in an incubator at 37° C. in humidified air containing 5% CO2. Prior to testing, antibiotic-free stock cultures of each of the cell lines are subcultured to 10^6 cells/ml by dilution in fresh growth medium at 2 to 3 day intervals.
To assess the antiproliferative effects of agents against the P388 cell line, 200 μl cultures (96 well tissue culture plates, Nunc, Denmark) are established at 1×10^5 cells/ml in drug-free medium or medium containing the test agent at 10.0, 1.0, 0.10 and 0.010 μg/ml. The solvent for all dilutions is ethanol. All experimental cultures are initiated in medium containing Gentamycin sulfate (50 μg/ml; Schering Corporation, Kenilworth, N.J.). After 48-hr exposure, P388 cells are enumerated using 3-[4,5-Dimethylthiazol-2-yl]-2,5-diphenyltetrazolium bromide (MTT) as described below.
(§2) To quantitate the effects on cell proliferation and resulting IC50 values, 75 μl of warm growth media containing 5 mg/ml MTT is added to each well, cultures are returned to the incubator, and left undisturbed for 90 minutes. […]

For experiment [2], the target named is T1, Aminopeptidase N (CD13) (Homo sapiens, UniProt P15144).
T1 construct: The source of Aminopeptidase N was the KG-1 cell line; endogenous in cells; host or cells: KG-1 cell lysate
Kind of experiment: Aminopeptidase N (CD13) ELISA capture enzyme assay. Format: biochemical. The settings on record: 18 h; at 5 μg/ml; read-out: ApN, I. As to the method:
(§3) Each of the following assays were performed using either a Tecan 8051 or a Tecan Megaflex automated liquid handling system. Extracts of marine organisms were tested at 5 μg/ml for all assays except DPP IV and LAR which were tested at 50 μg/ml. The inhibition of enzyme activity found in the presence of extract was compared to that of an uninhibited control. Extracts which inhibited the enzyme>50% were retested in triplicate to confirm activity.
Aminopeptidase N was assayed using an Enzyme-Linked Immunosorbant (ELISA) capture assay. Briefly, 96-well plates were coated with goat anti-mouse immunoglobulins (Sigma #M4169). Following an overnight incubation the plates were washed three times with PBS-0.1% Triton X-100. The secondary (capture) antibody was then added to the plate (100 μl/well, 3.7 μg/ml; antihuman MY7, Coulter Corporation) and incubated for 3 hours at room temperature. Plates were washed three times with PBS-0.1% Triton X-100. The source of Aminopeptidase N was the KG-1 cell line, 100 μl of an appropriate dilution of the KG-1 cell lysate was added to each well, incubated for 3 hours and then washed a final time. The enzyme assay was performed in PBS in a final volume of 200 μl with 200 μM ala-pNA as substrate and either test samples or controls. Liberated p-nitroaniline was determined by the change in absorbance at 405 nm following an 18 hr incubation at 37° C.

Experiment [3] relates to allogeneic immune responsiveness (MLR). Kind of experiment: Two-way mixed lymphocyte reaction (MLR). It is filed as cell-based. The text has this:
(§4) These assays measure the ability of the extracts/pure compounds to inhibit allogeneic immune responsiveness (MLR) and to affect the viability of unstimulated lymphocytes. These general methods are described in the following: Longley, R. E., D. Caddigan, D. Harmody, M. Gunasekera and S. P. Gunasekera (1991) Transplantation 52: 650-656.

Experiment [4] deals with EL-4.IL-2 murine lymphoma cells. The experiment in a line: EL-4 adherence testing. Format: cell-based. An excerpt:
This assay is based on the properties of extracts/pure compounds which serve as protein kinase C (PKC) active agents to either induce or inhibit the adherence of EL-4.IL-2 murine lymphoma cells to plastic surfaces. The general methodology of this assay is described in detail in the following: Longley, R. E. and D. Harmody (1991) J. Antibiotics 44:93-102.

The target of experiment [5] is T2, CPP32 (Homo sapiens, UniProt P42574).
T2 construct: purchased BASF, Worcester, Mass
T2 sequence (P42574 29-175 limits assumed): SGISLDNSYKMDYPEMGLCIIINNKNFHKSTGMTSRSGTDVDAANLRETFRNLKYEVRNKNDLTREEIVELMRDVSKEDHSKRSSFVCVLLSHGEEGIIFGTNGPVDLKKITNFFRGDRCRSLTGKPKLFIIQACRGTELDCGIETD
T2 sequence (P42574 176-277 limits assumed): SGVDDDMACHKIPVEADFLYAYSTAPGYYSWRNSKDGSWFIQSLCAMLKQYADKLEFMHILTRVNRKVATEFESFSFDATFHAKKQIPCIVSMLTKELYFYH
Kind of experiment: CPP32 enzyme assay. It is filed as biochemical. As to the method: as §3
Test samples were aliquoted into 96 well microtiter plates and allowed to air dry. The stock CPP32 enzyme (BASF, Worcester, Mass.) was diluted by adding 10 μl of the enzyme to 17 ml of reaction buffer (50 mM Hepes pH 7.5; 10% glyccrol; 5 mM Dithiothreitol; 0.5 mM EDTA). A volume of 180 μl of the diluted enzyme was added to wells containing the dried test samples, or to empty wells (control). The contents of the microtiter wells were mixed by shaking on a plate shaker. Plates were incubated at 30° C. for 5 minutes. […] Controls for each plate consisted of an inhibitor control (50 nM DEVD-CHO final concentration); positive control (enzyme and substrate) and negative control (reaction buffer substrate). The plates were covered with aluminum foil and mixed using a plate shaker for 5 min. then incubated at 30° C. for 30 minutes. Plates were read using a plate reader with absorbance measured at 405 nm. Data was expressed as percent inhibition by comparing the absorbance values of test samples with those of the positive control (no sample).

In experiment [6] the target is T3, Calcineurin (Bos taurus, UniProt P48452).
T3 construct: Calcineurin was prepared from bovine brain; from tissue; host or cells: bovine brain
The experiment in a line: Calcineurin phosphatase assay (pNPP). Format: biochemical, bovine. The settings on record: for inhibition at 0.5 µg/mL / inhibition at 5 µg/mL: 1 h, read-out: CaN, I; for inhibition at 0.5 µg/mL: at 0.5 μg/ml; for inhibition at 5 µg/mL: at 5 μg/ml; for IC50: pure compound, read-out: CaN, IC50 (converted).
Description: Calcineurin activity was assayed in 96-well microtiter plates in a final volume of 50 μl. Each well contained 50 mM Tris-HCI pH 7.5, 0.5 mM MnCl2, 0.05 mM CaCl2, 1 mM DTT, 50 mM p-nitrophenylphosphate (pNPP), 0.3 μg calcineurin, a five-fold excess of calmodulin, and either test samples or control compounds. Plates were incubated at 30° C. for 60 min. Liberated p-nitrophenol was determined by the change in absorbance at 405 nm.

Experiment [7] relates to A549 human lung adenocarcinoma. Kind of experiment: A549 in vitro anti-tumor testing (MTT). It is filed as cell-based. The procedure:
as §1
Similar procedures are utilized for A549 cells which require an additional 48 hr exposure prior to MTT addition. Results are expressed as percent inhibition compared to the negative (no drug) control. Positive drug controls are included to monitor drug sensitivity of each of the cell lines. These include varying dilutions of 5-fluorouracil, adriamycin, methotrexate and vinblastine.
as §2

In experiment [8] the test system is unstimulated lymphocytes. Kind of experiment: Lymphocyte viability (LCV) testing. It is filed as cell-based.
Excerpt: as §4

Experiment [9] addresses T4, ICE (Homo sapiens, UniProt P29466).
T4 construct: purchased BASF, Worcester, Mass
T4 sequence (P29466 120-297 limits assumed): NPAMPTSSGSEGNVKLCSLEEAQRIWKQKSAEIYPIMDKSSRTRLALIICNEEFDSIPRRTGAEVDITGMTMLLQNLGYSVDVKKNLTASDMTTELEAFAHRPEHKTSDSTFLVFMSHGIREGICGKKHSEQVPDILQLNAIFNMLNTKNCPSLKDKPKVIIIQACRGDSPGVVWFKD
T4 sequence (P29466 317-404 limits assumed): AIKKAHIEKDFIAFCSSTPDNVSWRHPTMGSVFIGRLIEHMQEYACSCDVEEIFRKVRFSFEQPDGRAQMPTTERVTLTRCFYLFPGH
Kind of experiment: ICE enzyme assay. It is filed as biochemical. As to the method:
as §3
Test samples were aliquoted into 96 well microtiter plates and allowed to air dry. Stock ICE enzyme (supplied by BASF, Worcester, Mass.) was diluted in reaction buffer (50 mM Hepes pH 7.5, 10% glycerol, 5 mM dithiothreitol,0.5 mM EDTA and 5 mM β-mercaptoethanol) to a concentration that yielded a minimum increase of 0.1 optical density units after 30 minutes of reaction time. Diluted ICE enzyme was incubated at room temperature for 5 minutes prior to aliquoting 180 μl into each sample well. The plates were incubated at 30° C. for 5 minutes following a brief mixing of the well contents by shaking on a plate shaker. A volume of 20 μl of the enzyme substrate (Ac-YVAD-pNA) was added to each well resulting in a final concentration of 50 μM. […] Plates were read on a plate reader with absorbance measured at 405 nm. Data was expressed as percent inhibition by comparing the absorbance values of test samples with those of the positive control (no sample).

Molecules are shown by their SMILES. Values after ≈ are worked out from the molar mass of the structure shown.

T1 sequence (P15144 whole entry): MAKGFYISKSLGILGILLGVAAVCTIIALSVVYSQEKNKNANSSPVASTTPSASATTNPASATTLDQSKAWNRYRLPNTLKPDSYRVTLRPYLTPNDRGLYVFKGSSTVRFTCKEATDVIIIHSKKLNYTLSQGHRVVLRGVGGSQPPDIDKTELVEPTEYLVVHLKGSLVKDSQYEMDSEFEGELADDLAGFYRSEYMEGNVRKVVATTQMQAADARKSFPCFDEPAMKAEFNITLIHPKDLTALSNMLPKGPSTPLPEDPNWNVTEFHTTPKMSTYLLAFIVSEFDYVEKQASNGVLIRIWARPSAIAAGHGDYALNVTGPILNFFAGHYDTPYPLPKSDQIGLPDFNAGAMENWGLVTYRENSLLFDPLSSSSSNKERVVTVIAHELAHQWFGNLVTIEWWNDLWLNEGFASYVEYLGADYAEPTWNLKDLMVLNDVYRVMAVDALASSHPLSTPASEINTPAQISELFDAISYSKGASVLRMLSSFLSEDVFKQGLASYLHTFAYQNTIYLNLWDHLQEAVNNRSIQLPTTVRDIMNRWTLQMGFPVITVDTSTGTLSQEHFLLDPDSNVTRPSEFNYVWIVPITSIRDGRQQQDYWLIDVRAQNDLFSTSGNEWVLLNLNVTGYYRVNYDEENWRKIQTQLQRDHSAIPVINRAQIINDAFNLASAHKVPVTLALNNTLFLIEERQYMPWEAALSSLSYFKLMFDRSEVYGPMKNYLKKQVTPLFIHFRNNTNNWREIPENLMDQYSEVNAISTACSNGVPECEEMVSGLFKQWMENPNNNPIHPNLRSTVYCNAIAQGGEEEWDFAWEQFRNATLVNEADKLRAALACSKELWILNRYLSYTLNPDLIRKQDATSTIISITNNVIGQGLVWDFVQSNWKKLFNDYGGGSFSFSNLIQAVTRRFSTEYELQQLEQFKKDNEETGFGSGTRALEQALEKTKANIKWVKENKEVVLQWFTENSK

For `N=C1C(Cl)=C(N)C(=O)c2[nH]cc(C(O)CO)c21` (stereo not drawn) [Secobatzelline A, secobatzelline A], the IC50 was 0.06 µg/mL in [1]; 0.68 µg/mL (≈ 2.66 µM) in experiment [3]; 2.15 µM in experiment [6]; 0.04 µg/mL in experiment [7]; 1.4 µg/mL (≈ 5.48 µM) in experiment [8]. In addition, the inhibition at 5 µg/mL amounted to 54.9% in experiment [2]; 86.5% in [5] (0.5 h, pH 7.5, at 5 μg/ml, read-out: CPP32, I); 75% in experiment [6]. The EL-4 adherence entry in experiment [4] is given as “inh. adhesion”. For the same compound, the “CPP32, IC50” value in experiment [5] worked out at 0.02 µg/mL. Besides, the inhibition at 0.5 µg/mL in experiment [5] (0.5 h, pH 7.5, at 0.5 μg/ml, read-out: CPP32, I) turned out to be 76.2%; in [6], 46%. Besides, in experiment [9], the ICE inhibition result is reported as “not detected”.

Consider `NC1=C(Cl)C(=O)c2c(C(O)CO)c[nH]c2C1=O` (stereo not drawn) [Secobatzelline B, secobatzelline B], for which the results for the IC50 in experiment [1], in experiment [6] and in experiment [7] were 1.22 µg/mL, 8.61 µM and 2.86 µg/mL, respectively. For the same compound, the inhibition at 0.5 µg/mL in experiment [6] came to 22%. Besides, in [6], the inhibition at 5 µg/mL is 43%.

For the origin of these results see patent US6218419A, “Aminoiminoquinone and aminoquinone alkaloid compounds and methods of use” (priority 1999, dated 2001).
